Results published in patent US10730872B2, “Pesticidally active heterocyclic derivatives with sulphur containing sustitutents” (SYNGENTA PARTICIPATIONS AG, priority 2015, dated 2020).
Each block holds one molecule with its values, some of them ahead of it.

Tests used:
Diabrotica balteata = Diabrotica balteata (Corn Root Worm); type: in vivo; conditions: 96 h, application rate of 200 ppm, sprayed maize sprouts, L2 larvae, 4 days after infestation, read-out: effect in at least one of the two categories (mortality or growth inhibition)
Protocol: Maize sprouts placed onto an agar layer in 24-well microtiter plates were treated with aqueous test solutions prepared from 10,000 ppm DMSO stock solutions by spraying. After drying, the plates were infested with L2 larvae (6 to 10 per well). The samples were assessed for mortality and growth inhibition in comparison to untreated samples 4 days after infestation.

Euschistus heros = Euschistus heros (Neotropical Brown Stink Bug); type: in vivo; conditions: 120 h, application rate of 200 ppm, sprayed soybean leaves, N2 nymphs, 5 days after infestation, read-out: effect in at least one of the two categories (mortality or growth inhibition)
Protocol: Soybean leaves on agar in 24-well microtiter plates were sprayed with aqueous test solutions prepared from 10,000 ppm DMSO stock solutions. After drying the leaves were infested with N2 nymphs. The samples were assessed for mortality and growth inhibition in comparison to untreated samples 5 days after infestation.

[1] = test system: Frankliniella occidentalis; test: Frankliniella occidentalis (Western Flower Thrips): Feeding/Contact Activity; type: in vivo; conditions: foliar, 168 h, application rate of 200 ppm, sprayed sunflower leaf discs, population of mixed ages, 7 days after infestation
Protocol: (§1) Sunflower leaf discs were placed on agar in 24-well microtiter plates and sprayed with aqueous test solutions prepared from 10,000 DMSO stock solutions. After drying the leaf discs were infested with a Frankliniella population of mixed ages. The samples were assessed for mortality 7 days after infestation.

Myzus persicae [2] = test: Myzus persicae (Green Peach Aphid): Feeding/Contact Activity; type: in vivo; conditions: foliar, 144 h, application rate of 200 ppm, sprayed sunflower leaf discs, aphid population of mixed ages, 6 days after infestation
Protocol: Sunflower leaf discs were placed onto agar in a 24-well microtiter plate and sprayed with aqueous test solutions prepared from 10,000 ppm DMSO stock solutions. After drying, the leaf discs were infested with an aphid population of mixed ages. The samples were assessed for mortality 6 days after infestation.

Plutella xylostella = Plutella xylostella (Diamond Back Moth); type: in vivo; conditions: 120 h, application rate of 200 ppm, artificial diet, L2 larvae, 5 days after infestation, read-out: effect in at least one of the two categories (mortality or growth inhibition)
Protocol: 24-well microtiter plates with artificial diet were treated with aqueous test solutions prepared from 10,000 ppm DMSO stock solutions by pipetting. After drying, the plates were infested with L2 larvae (10 to 15 per well). The samples were assessed for mortality and growth inhibition in comparison to untreated samples 5 days after infestation.

Spodoptera littoralis [3] = test: Spodoptera littoralis (Egyptian Cotton Leaf Worm), sprayed cotton leaf discs; type: in vivo; conditions: foliar, 72 h, application rate of 200 ppm, L1 larvae, 3 days after infestation
Procedure, shortened: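 Cotton leaf discs on agar sprayed with aqueous dilutions of 10,000 ppm DMSO stocks, dried, then infested with five L1 larvae. Mortality, anti-feeding and growth inhibition scored against untreated discs 3 days after infestation. Control recorded when any one category exceeds the untreated sample.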

Tetranychus urticae = Tetranychus urticae (Two-Spotted Spider Mite): Feeding/Contact Activity; type: in vivo; conditions: foliar, 192 h, application rate of 200 ppm, sprayed bean leaf discs, mixed population (mobile stages), 8 days after infestation
Protocol: Bean leaf discs on agar in 24-well microtiter plates were sprayed with aqueous test solutions prepared from 10,000 ppm DMSO stock solutions. After drying the leaf discs were infested with a mite population of mixed ages. The samples were assessed for mortality on mixed population (mobile stages) 8 days after infestation.

Aedes aegypti = test: Aedes Aegypti (Yellow Fever Mosquito); type: in vivo; conditions: 200 ppm in ethanol, dry deposit in 12 well plates, adult females, after 48 h and/or 24 h
Protocol: Test solutions, at an application rate of 200 ppm in ethanol, were applied to 12 well tissue culture plates. Once the deposits were dry, five, two to five day old adult female Aedes aegypti were added to each well, and sustained with a 10% sucrose solution in a cotton wool plug. Assessment of knockdown was made one hour after introduction, and mortality was assessed at 24 and 48 hours after introduction.

Bemisia tabaci = Bemisia tabaci (Cotton White Fly): Feeding/Contact Activity; type: in vivo; conditions: foliar, 144 h, application rate of 200 ppm, sprayed cotton leaf discs, adult white flies, 6 days after incubation
Protocol: Cotton leaf discs were placed on agar in 24-well microtiter plates and sprayed with aqueous test solutions prepared from 10,000 ppm DMSO stock solutions. After drying the leaf discs were infested with adult white flies. The samples were checked for mortality 6 days after incubation.

Myzus persicae [4] = test: Myzus persicae (Green Peach Aphid). Systemic Activity; type: in vivo; conditions: 144 h, test rate of 24 ppm, roots of infested pea seedlings in test solution, 6 days
Protocol: Roots of pea seedlings infested with an aphid population of mixed ages were placed directly into aqueous test solutions prepared from 10,000 DMSO stock solutions. The samples were assessed for mortality 6 days after placing seedlings into test solutions.

Spodoptera littoralis [5] = test: Spodoptera littoralis (Egyptian Cotton Leaf Worm), uptake by lettuce roots from agar; type: in vivo; conditions: 144 h, test rate of 12.5 ppm, mixed with agar, absorbed by lettuce roots, Spodoptera eggs, 6 days after infestation, read-out: effect in at least one of the three categories (mortality, anti-feeding, or growth inhibition)
Source text: Test compounds were applied by pipette from 10,000 ppm DMSO stock solutions into 24-well plates and mixed with agar. Lettuce seeds were placed onto the agar and the multi well plate was closed by another plate which contained also agar. After 7 days the compound was absorbed by the roots and the lettuce grew into the lid plate. The lettuce leaves were then cut off into the lid plate. Spodoptera eggs were pipetted through a plastic stencil onto a humid gel blotting paper and the lid plate was closed with it. The samples were assessed for mortality, anti-feedant effect and growth inhibition in comparison to untreated samples 6 days after infestation.

Thrips tabaci = Thrips tabaci (Onion Thrips) Feeding/Contact Activity; type: in vivo; conditions: foliar, 144 h, application rate of 200 ppm, sprayed sunflower leaf discs, thrips population of mixed ages, 6 days after infestation
Protocol: as §1, with “10,000 ppm” for “10,000”, “thrips” for “Frankliniella”, “6” for “7”

Myzus persicae [6] = test: Myzus persicae (Green Peach Aphid). Intrinsic Activity; type: in vivo; conditions: 120 h, test rate of 12 ppm, mixed with sucrose solution, Parafilm, 5 days after infestation
Protocol: Test compounds prepared from 10,000 ppm DMSO stock solutions were applied by pipette into 24-well microtiter plates and mixed with sucrose solution. The plates were closed with a stretched Parafilm. A plastic stencil with 24 holes was placed onto the plate and infested pea seedlings were placed directly on the Parafilm. The infested plate was closed with a gel blotting paper and another plastic stencil and then turned upside down. The samples were assessed for mortality 5 days after infestation.

SMILES: CCn1c(C(F)(F)F)cc2nc(-c3ncc(NC4CC4)cc3S(=O)(=O)CC)n(C)c2c1=O [Compound A1]
effect mortality or growth inhibition at 200 ppm (Diabrotica balteata): ≥ 80%
percent effect (mortality or growth inhibition) at 200 ppm (Euschistus heros): ≥ 80%
mortality at 200 ppm [1]: ≥ 80%
mortality at 200 ppm (Myzus persicae [2]): ≥ 80%
percent effect (mortality or growth inhibition) at 200 ppm (Plutella xylostella): ≥ 80%
percent control (mortality, anti-feeding effect or growth inhibition) at 200 ppm (Spodoptera littoralis [3]): ≥ 80%
mortality at 200 ppm (Tetranychus urticae): ≥ 80%
pest or weed control at 200 ppm (Aedes aegypti): ≥ 80%

SMILES: CCn1c(C(F)(F)F)cc2nc(-c3nc(N(C)C(=O)C4CC4)ccc3S(=O)(=O)CC)n(C)c2c1=O [Compound A10, N-[6-[5-ethyl-3-methyl-4-oxo-6-(trifluoromethyl)imidazo[4,5-c]pyridin-2-yl]-5-ethylsulfonyl-2-pyridyl]-N-methyl-cyclopropanecarboxamide]
mortality at 200 ppm (Bemisia tabaci): ≥ 80%
effect mortality or growth inhibition at 200 ppm (Diabrotica balteata): ≥ 80%
percent effect (mortality or growth inhibition) at 200 ppm (Euschistus heros): ≥ 80%
mortality at 200 ppm [1]: ≥ 80%
mortality at 200 ppm (Myzus persicae [2]): ≥ 80%
mortality at 24 ppm (Myzus persicae [4]): ≥ 80%
percent effect (mortality or growth inhibition) at 200 ppm (Plutella xylostella): ≥ 80%
percent control (mortality, anti-feeding effect or growth inhibition) at 200 ppm (Spodoptera littoralis [3]): ≥ 80%
percent effect (mortality, anti-feeding or growth inhibition) at 12.5 ppm (Spodoptera littoralis [5]): ≥ 80%

SMILES: CCn1c(C(F)(F)F)cc2nc(-c3ncc(N(C)C4CC4)cc3S(=O)(=O)CC)n(C)c2c1=O [Compound A11, 2-[5-[cyclopropyl(methyl)amino]-3-ethylsulfonyl-2-pyridyl]-5-ethyl-3-methyl-6-(trifluoromethyl)imidazo[4,5-c]pyridin-4-one]
effect mortality or growth inhibition at 200 ppm (Diabrotica balteata): ≥ 80%
percent effect (mortality or growth inhibition) at 200 ppm (Euschistus heros): ≥ 80%
mortality at 200 ppm [1]: ≥ 80%
mortality at 200 ppm (Myzus persicae [2]): ≥ 80%
percent effect (mortality or growth inhibition) at 200 ppm (Plutella xylostella): ≥ 80%
percent control (mortality, anti-feeding effect or growth inhibition) at 200 ppm (Spodoptera littoralis [3]): ≥ 80%
percent effect (mortality, anti-feeding or growth inhibition) at 12.5 ppm (Spodoptera littoralis [5]): ≥ 80%
pest or weed control at 200 ppm (Aedes aegypti): ≥ 80%

melting point: 232 to 234 °C
SMILES: CCn1c(C(F)(F)F)cc2nc(-c3ncc(N(C(=O)C4CC4)S(C)(=O)=O)cc3S(=O)(=O)CC)n(C)c2c1=O [Compound A21, N-[6-[5-ethyl-3-methyl-4-oxo-6-(trifluoromethyl)imidazo[4,5-c]pyridin-2-yl]-5-ethylsulfonyl-3-pyridyl]-N-methylsulfonyl-cyclopropanecarboxamide]

SMILES: CCS(=O)(=O)c1cc(Cl)c(N)nc1-c1nc2cc(C(F)(F)F)n(C3CC3)c(=O)c2n1C [Compound A43, 2-(6-amino-5-chloro-3-ethylsulfonyl-2-pyridyl)-5-cyclopropyl-3-methyl-6-(trifluoromethyl)imidazo[4,5-c]pyridin-4-one]
mortality at 200 ppm (Bemisia tabaci): ≥ 80%
effect mortality or growth inhibition at 200 ppm (Diabrotica balteata): ≥ 80%
percent effect (mortality or growth inhibition) at 200 ppm (Euschistus heros): ≥ 80%
mortality at 200 ppm [1]: ≥ 80%
mortality at 200 ppm (Myzus persicae [2]): ≥ 80%
mortality at 24 ppm (Myzus persicae [4]): ≥ 80%
percent effect (mortality or growth inhibition) at 200 ppm (Plutella xylostella): ≥ 80%
percent control (mortality, anti-feeding effect or growth inhibition) at 200 ppm (Spodoptera littoralis [3]): ≥ 80%
percent effect (mortality, anti-feeding or growth inhibition) at 12.5 ppm (Spodoptera littoralis [5]): ≥ 80%

SMILES: CCS(=O)(=O)c1cc(Br)c(N)nc1-c1nc2cc(C(F)(F)F)n(C3CC3)c(=O)c2n1C [Compound A44, 2-(6-amino-5-bromo-3-ethylsulfonyl-2-pyridyl)-5-cyclopropyl-3-methyl-6-(trifluoromethyl)imidazo[4,5-c]pyridin-4-one]
mortality at 200 ppm (Bemisia tabaci): ≥ 80%
effect mortality or growth inhibition at 200 ppm (Diabrotica balteata): ≥ 80%
percent effect (mortality or growth inhibition) at 200 ppm (Euschistus heros): ≥ 80%
mortality at 200 ppm (Myzus persicae [2]): ≥ 80%
percent effect (mortality or growth inhibition) at 200 ppm (Plutella xylostella): ≥ 80%
percent control (mortality, anti-feeding effect or growth inhibition) at 200 ppm (Spodoptera littoralis [3]): ≥ 80%
percent effect (mortality, anti-feeding or growth inhibition) at 12.5 ppm (Spodoptera littoralis [5]): ≥ 80%
mortality at 200 ppm (Thrips tabaci): ≥ 80%

SMILES: CCS(=O)(=O)c1cc(C2CC2)c(N)nc1-c1nc2cc(C(F)(F)F)n(C3CC3)c(=O)c2n1C [Compound A48, 2-(6-amino-5-cyclopropyl-3-ethylsulfonyl-2-pyridyl)-5-cyclopropyl-3-methyl-6-(trifluoromethyl)imidazo[4,5-c]pyridin-4-one]
mortality at 200 ppm (Bemisia tabaci): ≥ 80%
effect mortality or growth inhibition at 200 ppm (Diabrotica balteata): ≥ 80%
percent effect (mortality or growth inhibition) at 200 ppm (Euschistus heros): ≥ 80%
mortality at 200 ppm [1]: ≥ 80%
mortality at 200 ppm (Myzus persicae [2]): ≥ 80%
mortality at 24 ppm (Myzus persicae [4]): ≥ 80%
percent effect (mortality or growth inhibition) at 200 ppm (Plutella xylostella): ≥ 80%
percent control (mortality, anti-feeding effect or growth inhibition) at 200 ppm (Spodoptera littoralis [3]): ≥ 80%
mortality at 200 ppm (Tetranychus urticae): ≥ 80%

SMILES: CCS(=O)(=O)c1cc(Br)c(NC)nc1-c1nc2cc(C(F)(F)F)n(C3CC3)c(=O)c2n1C [Compound A52, 2-[5-bromo-3-ethylsulfonyl-6-(methylamino)-2-pyridyl]-5-cyclopropyl-3-methyl-6-(trifluoromethyl)imidazo[4,5-c]pyridin-4-one]
mortality at 200 ppm (Bemisia tabaci): ≥ 80%
effect mortality or growth inhibition at 200 ppm (Diabrotica balteata): ≥ 80%
percent effect (mortality or growth inhibition) at 200 ppm (Euschistus heros): ≥ 80%
mortality at 200 ppm (Myzus persicae [2]): ≥ 80%
percent effect (mortality or growth inhibition) at 200 ppm (Plutella xylostella): ≥ 80%
percent control (mortality, anti-feeding effect or growth inhibition) at 200 ppm (Spodoptera littoralis [3]): ≥ 80%
percent effect (mortality, anti-feeding or growth inhibition) at 12.5 ppm (Spodoptera littoralis [5]): ≥ 80%
mortality at 200 ppm (Thrips tabaci): ≥ 80%

SMILES: CCSc1cc(NC(=O)C2CC2)cnc1-c1nc2cc(C(F)(F)F)n(CC)c(=O)c2n1C [Compound A59, N-[6-[5-ethyl-3-methyl-4-oxo-6-(trifluoromethyl)imidazo[4,5-c]pyridin-2-yl]-5-ethylsulfanyl-3-pyridyl]cyclopropanecarboxamide]
effect mortality or growth inhibition at 200 ppm (Diabrotica balteata): ≥ 80%
mortality at 200 ppm (Myzus persicae [2]): ≥ 80%
mortality at 12 ppm (Myzus persicae [6]): ≥ 80%
percent effect (mortality or growth inhibition) at 200 ppm (Plutella xylostella): ≥ 80%
percent control (mortality, anti-feeding effect or growth inhibition) at 200 ppm (Spodoptera littoralis [3]): ≥ 80%
